{"source": "patent US20060173080A1", "about": "“Methods of modulating TNF using bupropion” (The Regents of the University of California, priority 2002, published 2006)", "key": {"[1]": {"tested_on": "β-adrenergic receptor", "settings": "Garrcha et al. 1985; cited from earlier work"}, "[2]": {"tested_on": "CD patients", "settings": "Kast and Altschuler 2001; cited from earlier work"}, "[3]": {"tested_on": "TNF", "test": "Serum TNF by ELISA in LPS-challenged mice", "assay_type": "in vivo, BALB/c mice", "settings": "bupropion 100 mg/kg i.p. 1 h before 600 μg LPS i.p., serum 90 min after LPS", "method": "To study the immunomodulatory effects of bupropion we used a mouse model in which TNF production is induced by stimulation with lipopolysaccharide (LPS) (Bozza et al, The PACAP-type I receptor agonist maxadilan from sand fly saliva protects mice against lethal endotoxemia by a mechanism partially dependent on IL-10, Eur. J. Immunol. 28, 3120-3127, 1998). BALB/c mice were injected intraperitoneally (i.p.) with bupropion or placebo 1 h prior to i.p. injection of LPS (600 ug/mouse).\nMale, 6 weeks old BALB/c mice were used in LPS-induced shock experiments. All mice were raised and maintained at the animal facilities at the Goncalo Moniz Research Center-FIOCRUZ, and provided with rodent diet and water ad libitum. Animal numbers in experimental groups were the minimum necessary to permit statistical analysis. All animals were sacrificed under anaesthesia.\nGroups of mice were injected intraperitoneally (i.p.) with a dose of 600 μg of LPS (from Escherichia coli serotype 0111 :B4, Sigma, St. Louis, Mo., USA) in saline (previously determined as LD 100) 1 h after injection of placebo or bupropion. In some experiments, groups of mice received i.p. injection of propranolol (1 mg/Kg), SCH23390 (25 μg/kg) and sulpiride (25 mg/Kg) 1 h prior to injection of bupropion. […]. To determine serum TNF, IL-1 beta and IL-10 levels, mice were sacrificed 90 min after injection of LPS and bled by axilar vein puncture. Levels of IFN-gamma and nitric oxide were assayed using sera of mice sacrificed 4 h after LPS injection. Platelet and leukocyte cell counts were performed using blood collected with EDTA after 4 h of LPS challenge, using an automated cell counter (ADVIA 60, Bayer).\nTNF, IL-1beta, IFN-gamma and IL-10 concentrations in serum samples or in supernatants from macrophage cultures were determined by enzyme-linked immunosorbent assay (ELISA) using antibody pairs and recombinant cytokines from R&D systems (Minneapolis, Minn., USA), according to the manufacturer's instructions. After incubation with streptoavidin-peroxidase conjugate (Sigma), the reaction was developed using 3,3′, 5,5′-tetramethylbenzidine (TMB) peroxidase substrate and read at 450 nm. The serum concentration of nitrite (NO2−) was determined by the Griess reaction, as an indicator of nitric oxide production (Green et al., Analysis of nitrate nitrite and [^15N] nitrite in biological fluids. Anal. Biochem 126, 131-138, 1982). […] The absorbance of the reaction product at 540 nm was measured using an ELISA reader. The NO2^− concentration was determined by using sodium nitrite as standard. Data were analyzed using Student's t test, one-way ANOVA or Newman-Keuls multiple comparison test, using Graph Pad Prism 3.0 software. […]"}}, "note": "Entries after “also recorded” stand apart in the source; their conditions may differ. Counter-ions that a name gives are not always drawn."}
{"smiles": "CC(NC(C)(C)C)C(=O)c1cccc(Cl)c1", "note": "(racemic) [bupropion, (.±.)-1-(3-chlorophenyl)-2-[(1,1-dimethylethyl)amino]-1-propanone hydrochloride]", "values": [{"measurement": "compensatory β-adrenergic receptor down-regulation", "setting": "[1]", "result": "does not cause"}, {"measurement": "clinical remission of CD (published cases)", "setting": "[2]", "result": "clinical remission"}, {"measurement": "serum TNF level compared with placebo", "setting": "[3]; listed as bupropion hydrochloride", "result": "decrease"}, {"measurement": "serum TNF level compared with placebo", "setting": "[3]; hydrochloride", "result": "lowers; also recorded: significantly reduced"}, {"measurement": "serum TNF level compared with placebo", "setting": "[3]; listed as Bupropion, hydrochloride", "result": "significantly decreased"}, {"measurement": "serum TNF level compared with placebo", "setting": "[3]; listed as buproprion, hydrochloride", "result": "decreased"}]}
